Reference: patent US10471028B2, “Small molecule efflux pump inhibitors” (UNIVERSITY OF ROCHESTER, priority 2014, dated 2019)
Like-named read-outs stand apart in the source and are kept apart here.

How the values were obtained:
[1] = test system: A. baumannii strain 98-37-09; experiment: MEC determination: potentiation of minocycline toward serum grown A. baumannii; assay type: cell-based, Acinetobacter baumannii; conditions: for Log-reduction Colony Forming Units (ml^−1): 1×MEC of compound plus minocycline in serum, versus minocycline alone, plating; for MEC: lowest concentration inhibiting growth in 100% human serum with 0.5 μg ml^−1 minocycline, 48 hr
Protocol: The TimTec ActiProbe-25K diversity-set and Natural Product compound libraries (29,900 compounds total; TimTec, Newark, Del.) were initially screened for putative efflux pump inhibitors by identifying compounds that potentiated the antimicrobial property of a sub-inhibitory concentration of minocycline toward A. baumannii grown in human serum. To do so, A. baumannii strain 98-37-09 was grown for 16 hours in LB medium at 37° C. on a rotary shaker at 225 rpm. Approximately 1×10^5 CFU were then transferred to individual wells of a 96-well round-bottom plate (Corning Costar, Tewksbury, Mass.) containing 100 μL of human serum supplemented with of minocycline (0.5 μg mL^−1; 0.5× minimum inhibitory concentration in serum) and individual members of the Timtec ActiProbe or Natural product library (50 μM). Plates were then incubated at 37° C. for 48 hours. Growth was measured as a function of turbidity. Putative efflux pump inhibitors were identified as compounds that inhibited A. baumannii growth in human serum containing minocycline and were subsequently retested in triplicate, as indicated above. Untreated A. baumannii grown in serum supplemented with minocycline+/−PAβN served as positive and negative controls, respectively. […] Repeat testing in which well constituents were serial diluted and plated on LB agar plates validated that 85 compounds did indeed limit A. baumannii growth in serum supplemented with minocycline, reducing the number of viable colony forming units between 2-6 log cfu in comparison to minocycline alone treated cells.
The MEC was defined as the lowest concentration of test compound required to inhibit the growth of A. baumannii in serum in the presence of 0.5 μg ml^−1 minocycline. Plating confirmed that addition of 1×MEC of each compound elicited ≥1.9-log reduction in A. baumannii cells grown in serum supplemented with minocycline alone (see Table 1).

[2] = test system: A. baumannii strain 98-37-09; experiment: Cellular accumulation of minocycline (HPLC, triple-quadrupole MS); assay type: cell-based, Acinetobacter baumannii; conditions: human serum with 0.5 μg mL^−1 minocycline plus test compound (0.5×MEC, 1×MEC), 48 hours
Protocol: High pressure liquid chromatography and triple-quadrupole mass spectrometry were used to measure the A. baumannii intracellular levels of minocycline during growth in human serum in the absence and presence of each putative efflux pump inhibitor. […] Cultures were incubated for 48 hours with shaking, at which point an aliquot was removed, serially diluted, and plated to determine the number of viable CFU per mixture. The remainder of the cells were pelleted by centrifugation at 900×g at 4° C., washed twice in PBS, mechanically lysed with a FastPrep cell disrupter (MP Biomedicals, Santa Ana, Calif.) for 20 seconds at 5 m s^−1 and the cellular debris was pelleted via centrifugation at 900×g and 4° C. The amount of minocycline present within the supernatant of ruptured cells was measured. Briefly, doxycycline (0.5 μg mL^−1) was first added to each supernatant to serve as an internal control to account for sample-to-sample preparation variability. The supernatant was then combined with acetonitrile (ACN) at a 1:10 ratio and centrifuged at 16,000×g, at 4° C., to collect minocycline and doxycycline. […] residual liquid was evaporated in a speed vacuum for 2 hours at 8,000×g. To quantify the amount of antibiotics retained, sample materials were suspended in 50% acetonitrile, filtered through a 0.2 μm low protein binding hydrophilic membrane (Millipore, Billerica, Mass.) then separated on Shimadzu high performance liquid chromatography instrument (Fisher Scientific) using a BetaBasic C18 reverse phase column (Thermo Scientific). Separation was carried out with two mobile phase solutions consisting of solution (A) water with 0.1% formic acid and solution (B) 100% ACN. The gradient profile of the chromatography runs was as follows: from 0 to 0.1 min 8% solution B, ramp step wise (37% to 60% solution B) from 0.1 to 6.5 min then holding for one minute before ramping down from 60% to 10% from 7.5 to 8 min. This was followed a hold at 10% solution B for one minute. […] The column was equilibrated in 8% solution B at 40° C. and the flow rate was set to 0.2 mL min^−1. Mass spectrometry analysis of fractions was carried out using a Thermo TSQ Quantum Ultra triple quadrupole mass spectrometer (Fisher Scientific). Data were analyzed using Xcalibur software (Thermo Scientific); the following parameters were used to detect minocycline and the internal control doxycycline: 458.208 m/z→282.971 m/z (collision energy=43, tube lens=119) for minocycline and 445.144 m/z→266.900 m/z (collision energy=39, tube lens=127) for doxycycline. Analysis of the raw data was conducted by using the area under the curve calculations with the Genesis algorithm to determine the concentration in each sample. The difference between the peak intensity and the y intercept of pre-established minocycline and doxycycline standard curves was divided by the slope of the standard curve to quantify the amount of minocycline within each sample. The total concentration of minocycline within each cell was calculated by normalizing to the number of cells within each corresponding culture.

[3] = test system: human HepG2 cells; experiment: MTT cell viability (cytotoxicity) assay
Protocol: To distinguish putatively non-toxic from human cytotoxic compounds, conventional 3-(4,5-dimethylthiazol-2yl)-2,5-diphenyltetrazolium bromide (MTT) cell viability assays (American Type Culture Collection, Manassas, Va.) were performed for each compound of interest at 1× and 4× their MEC. Briefly, human HepG2 cells were grown to approximately 1×10^6 cells per well in Dulbecco's Modified Eagle Media supplemented with 10% fetal bovine serum (Invitrogen, Carlsbad, Calif.) then treated with 1× or 4× the MEC of the indicated […] Cell viability was measured following the addition of the tetrazolium salt (MTT) as per the manufacturer's recommendations; cells challenged with 50 ug ml^−1 Mitomycin C (Sigma Aldrich) and mock-treated cells served as positive and negative controls, respectively.

[4] = test system: A. baumannii strain 98-37-09; experiment: Potentiation of ciprofloxacin toward serum grown A. baumannii; assay type: cell-based, Acinetobacter baumannii; conditions: 100% human serum, 0.125 μg ml^−1 ciprofloxacin, 1× or 2× MEC, 48 hour, growth inhibition
Excerpt: As a means to further prioritize non-toxic compounds of interest based on their therapeutic promise, it was considered that broad spectrum antimicrobial efflux pump inhibitors may be more clinically valuable than narrow-spectrum agents that only potentiate the activity of a limited number of antibiotics or that display activity toward a single bacterial species. […] To do so, 1×10^5 A. baumannii strain 98-37-09 were inoculated into individual wells of microtiter plates containing 100% human serum supplemented with 0.125 μg ml^−1 ciprofloxacin and 0, 1×, or 2× the compound's MEC, as defined by the lowest concentration needed to potentiated minocycline's antimicrobial effects (above). Plates were incubated for 48 hour at which point each compound's ability to potentiate ciprofloxacin was measured, as growth inhibition.

## Cc1cc2c(c(=O)o1)C(c1ccc(F)cc1)C(C#N)=C(N)O2 (stereo not shown) [ST007013]
[1]
  Log-reduction Colony Forming Units (ml^−1): 1.95 log
  MEC: 4 µg/mL
[2]
  Minocylcine Per Cell (femtomoles cell^−1): 5E−04 femtomoles cell^−1
[3]
  % Viability: 80.9%
[4]
  Potentiate Ciprofloxacin A. baumannii: No

## Cc1ccc(C=Nc2cc([N+](=O)[O-])ccc2O)cc1 [ST010277]
[1]
  Log-reduction Colony Forming Units (ml^−1): 7.33 log
  MEC: 32 µg/mL
[2]
  Minocylcine Per Cell (femtomoles cell^−1): 1.15E−05 femtomoles cell^−1
[3]
  % Viability: 82.4%
[4]
  Potentiate Ciprofloxacin A. baumannii: No

## CCOC(=O)/C=C/C(=O)Nc1ccc(S(=O)(=O)Nc2nccs2)cc1 [ST026450]
[1]
  Log-reduction Colony Forming Units (ml^−1): 5.37 log
  MEC: 32 µg/mL
[2]
  Minocylcine Per Cell (femtomoles cell^−1): 2.35E−06 femtomoles cell^−1
[3]; human, 48 h, 4 ×MEC
  % Viability: 100%
[4]
  Potentiate Ciprofloxacin A. baumannii: No

## CCOC(=O)/C=C/C(=O)Nc1ccc(S(N)(=O)=O)cc1 [ST026465]
[1]
  Log-reduction Colony Forming Units (ml^−1): 6.36 log
  MEC: 32 µg/mL
[2]
  Minocylcine Per Cell (femtomoles cell^−1): 3.82E−04 femtomoles cell^−1
[3]; human, 48 h, 4 ×MEC
  % Viability: 100%
[4]
  Potentiate Ciprofloxacin A. baumannii: No

## C/C(=N\NC(=O)c1ccccc1F)c1ccccc1O [ST033061]
[1]
  Log-reduction Colony Forming Units (ml^−1): 2.18 log
  MEC: 2 µg/mL
[2]
  Minocylcine Per Cell (femtomoles cell^−1): 1.96E−04 femtomoles cell^−1
[3]
  % Viability: 77.58%
[4]
  Potentiate Ciprofloxacin A. baumannii: No

## N#Cc1c(/N=C/c2ccc([N+](=O)[O-])o2)sc2c1CCCC2 [ST033065]
[1]
  Log-reduction Colony Forming Units (ml^−1): 2.44 log
  MEC: 2 µg/mL
[2]
  Minocylcine Per Cell (femtomoles cell^−1): 2.06E−05 femtomoles cell^−1
[3]
  % Viability: 75.6%
[4]
  Potentiate Ciprofloxacin A. baumannii: No

## O=C(N/N=C/c1ccc2c(c1)OCO2)c1ccccc1O [ST033341]
[1]
  Log-reduction Colony Forming Units (ml^−1): 2.42 log
  MEC: 2 µg/mL
[2]
  Minocylcine Per Cell (femtomoles cell^−1): 3.39E−05 femtomoles cell^−1
[3]
  % Viability: 75.88%
[4]
  Potentiate Ciprofloxacin A. baumannii: No

## Cc1cccc(N(CC(=O)Nc2ccc(Cc3ccncc3)cc2)S(=O)(=O)c2ccccc2)c1 [ST034014]
[1]
  Log-reduction Colony Forming Units (ml^−1): 2.37 log
  MEC: 2 µg/mL
[2]
  Minocylcine Per Cell (femtomoles cell^−1): 5.46E−04 femtomoles cell^−1
[3]
  % Viability: 84.27%
[4]
  Potentiate Ciprofloxacin A. baumannii: No

## COc1ccc(C2N(Cc3ccccc3)CCN2Cc2ccccc2)cc1 [ST036291]
[1]
  Log-reduction Colony Forming Units (ml^−1): 3.31 log
  MEC: 2 µg/mL
[2]
  Minocylcine Per Cell (femtomoles cell^−1): 5.5E−05 femtomoles cell^−1
[3]
  % Viability: 75.74%
[4]
  Potentiate Ciprofloxacin A. baumannii: No

## COC(=O)CCC(=O)Nc1ccc(S(N)(=O)=O)cc1 [ST040289]
[1]
  Log-reduction Colony Forming Units (ml^−1): 4.32 log
  MEC: 4 µg/mL
[2]
  Minocylcine Per Cell (femtomoles cell^−1): 8.38E−04 femtomoles cell^−1
[3]
  % Viability: 78.8%
[4]
  Potentiate Ciprofloxacin A. baumannii: No

## CC(=O)NS(=O)(=O)c1ccc(N)cc1 [ST040724]
[1]
  Log-reduction Colony Forming Units (ml^−1): 4.08 log
  MEC: 64 µg/mL
[2]
  Minocylcine Per Cell (femtomoles cell^−1): 1.45E−04 femtomoles cell^−1
[4]
  Potentiate Ciprofloxacin A. baumannii: No

## Cc1ccc(C2N(Cc3ccccc3)CCCN2Cc2ccccc2)o1 [ST048001]
[1]
  Log-reduction Colony Forming Units (ml^−1): 7.06 log
  MEC: 32 µg/mL
[2]
  Minocylcine Per Cell (femtomoles cell^−1): 1.99E−04 femtomoles cell^−1
[3]
  % Viability: 82.72%
[4]
  Potentiate Ciprofloxacin A. baumannii: No

## COc1ccc2c(c1)CCC(C)N2S(=O)(=O)c1ccc(C2CNC(=O)C2)cc1 (stereo not shown) [ST058899]
[1]
  Log-reduction Colony Forming Units (ml^−1): 6.21 log
  MEC: 64 µg/mL
[2]
  Minocylcine Per Cell (femtomoles cell^−1): 1.08E−04 femtomoles cell^−1
[3]
  % Viability: 80.69%
[4]
  Potentiate Ciprofloxacin A. baumannii: No

## Nc1ccc(S(=O)(=O)Nc2ncccn2)cc1 [ST059447]
[1]
  Log-reduction Colony Forming Units (ml^−1): 5.74 log
  MEC: 4 µg/mL
[2]
  Minocylcine Per Cell (femtomoles cell^−1): 4.52E−05 femtomoles cell^−1
[3]
  % Viability: 76.78%
[4]
  Potentiate Ciprofloxacin A. baumannii: No

## O=C1c2ccccc2C(=O)N1CCN1CCNCC1 [ST059581]
[1]
  Log-reduction Colony Forming Units (ml^−1): 6.12 log
  MEC: 32 µg/mL
[2]
  Minocylcine Per Cell (femtomoles cell^−1): 5.64E−05 femtomoles cell^−1
[3]
  % Viability: 84.56%
[4]
  Potentiate Ciprofloxacin A. baumannii: No

## COc1cc(C(=O)Nc2ccccc2C(=O)NCC2CCCO2)cc(OC)c1OC (stereo not shown) [ST060053]
[1]
  Log-reduction Colony Forming Units (ml^−1): 4.94 log
  MEC: 4 µg/mL
[2]
  Minocylcine Per Cell (femtomoles cell^−1): 1.78E−04 femtomoles cell^−1
[3]
  % Viability: 76.11%
[4]
  Potentiate Ciprofloxacin A. baumannii: No
